In patent US20250312462A1, “PAK1 DEGRADERS AND METHODS OF USE THEREOF” (INSTITUTE FOR CANCER RESEARCH D/B/A THE RESEARCH INSTITUTE …, priority 2022, published 2025):

What was measured:
PKNB(M. tuberculosis) = biological target: T1, PKNB(M. tuberculosis) (Mycobacterium tuberculosis, UniProt P9WI81); assay: KINOMEscan; type: binding; conditions: read-out: Percent Control
T1 construct: purchased DiscoverX

PRKD3 = PRKD3 (Homo sapiens, UniProt O94806); assay: KINOMEscan; conditions: read-out: Percent Control
Experimental: (§1) The kinase engagement assay (KINOMEscan®) was performed by DiscoverX assessing binding abilities toward a set of kinases.

DAPK2 = DAPK2 (Homo sapiens, UniProt Q9UIK4); assay: KINOMEscan; conditions: read-out: Percent Control
Experimental: as §1

ARK5 = ARK5 (Homo sapiens, UniProt O60285); assay: KINOMEscan; conditions: read-out: Percent Control
Experimental: as §1

CAMK2D = CAMK2D (Homo sapiens, UniProt Q13557); assay: KINOMEscan; conditions: read-out: Percent Control
Experimental: as §1

MAP4K4 = MAP4K4 (Homo sapiens, UniProt O95819); assay: KINOMEscan; conditions: read-out: Percent Control
Experimental: as §1

RET = RET (Homo sapiens, UniProt P07949); assay: KINOMEscan; conditions: read-out: Percent Control
Experimental: as §1

IRAK3 = IRAK3 (Homo sapiens, UniProt Q9Y616); assay: KINOMEscan; conditions: read-out: Percent Control
Experimental: as §1

[1] = biological target: RPS6KA4(Kin.Dom.1-N-terminal) (Homo sapiens, UniProt O75676); assay: KINOMEscan; conditions: read-out: Percent Control
Experimental: as §1

PIK3CA = PIK3CA (Homo sapiens, UniProt P42336); assay: KINOMEscan; conditions: read-out: Percent Control
Experimental: as §1

ADCK4 = ADCK4 (Homo sapiens, UniProt Q96D53); assay: KINOMEscan; conditions: read-out: Percent Control
Experimental: as §1

RIPK2 = RIPK2 (Homo sapiens, UniProt O43353); assay: KINOMEscan; conditions: read-out: Percent Control
Experimental: as §1

MET = MET (Homo sapiens, UniProt P08581); assay: KINOMEscan; conditions: read-out: Percent Control
Experimental: as §1

BLK = BLK (Homo sapiens, UniProt P51451); assay: KINOMEscan; conditions: read-out: Percent Control
Experimental: as §1

[2] = biological target: EGFR(L747-E749del, A750P) (Homo sapiens, UniProt P00533, A750P/DEL747-749); assay: KINOMEscan; conditions: read-out: Percent Control
Experimental: as §1

KIT(V559D) = KIT(V559D) (Homo sapiens, UniProt P10721, V559D); assay: KINOMEscan; conditions: read-out: Percent Control
Experimental: as §1

PRKR = PRKR (Homo sapiens, UniProt P19525); assay: KINOMEscan; conditions: read-out: Percent Control
Experimental: as §1

STK36 = STK36 (Homo sapiens, UniProt Q9NRP7); assay: KINOMEscan; conditions: read-out: Percent Control
Experimental: as §1

AURKC = AURKC (Homo sapiens, UniProt Q9UQB9); assay: KINOMEscan; conditions: read-out: Percent Control
Experimental: as §1

MEK6 = MEK6 (Homo sapiens, UniProt P52564); assay: KINOMEscan; conditions: read-out: Percent Control
Experimental: as §1

SRPK1 = SRPK1 (Homo sapiens, UniProt Q96SB4); assay: KINOMEscan; conditions: read-out: Percent Control
Experimental: as §1

PCTK1 = PCTK1 (Homo sapiens, UniProt Q00536); assay: KINOMEscan; conditions: read-out: Percent Control
Experimental: as §1

[3] = biological target: JAK2(JH1domain-catalytic) (Homo sapiens, UniProt O60674); assay: KINOMEscan; conditions: read-out: Percent Control
Experimental: as §1

IKK-epsilon = IKK-epsilon (Homo sapiens, UniProt Q14164); assay: KINOMEscan; conditions: read-out: Percent Control
Experimental: as §1

MEK1 = MEK1 (Homo sapiens, UniProt Q02750); assay: KINOMEscan; conditions: read-out: Percent Control
Experimental: as §1

OSR1 = OSR1 (Homo sapiens, UniProt O95747); assay: KINOMEscan; conditions: read-out: Percent Control
Experimental: as §1

PIK3CA(E545A) = PIK3CA(E545A) (Homo sapiens, UniProt P42336, E545A); assay: KINOMEscan; conditions: read-out: Percent Control
Experimental: as §1

PIK3CA(Q546K) = PIK3CA(Q546K) (Homo sapiens, UniProt P42336, Q546K); assay: KINOMEscan; conditions: read-out: Percent Control
Experimental: as §1

PIK3CB = PIK3CB (Homo sapiens, UniProt P42338); assay: KINOMEscan; conditions: read-out: Percent Control
Experimental: as §1

PRKCI = PRKCI (Homo sapiens, UniProt P41743); assay: KINOMEscan; conditions: read-out: Percent Control
Experimental: as §1

ZAP70 = ZAP70 (Homo sapiens, UniProt P43403); assay: KINOMEscan; conditions: read-out: Percent Control
Experimental: as §1

PAK1 = PAK1 (Homo sapiens, UniProt Q13153); assay: Z'-LYTE FRET kinase inhibition assay; type: biochemical; set-up: human recombinant PAK1 (kinase domain); purchased Invitrogen PV2830
Experimental: The activity/inhibition of human recombinant PAK1 (kinase domain) or PAK2 (full length) was determined by measuring the phosphorylation of a FRET peptide substrate (Ser/Thr19) labeled with Coumarin and Fluorescein using Z′-LYTE™ assay (Invitrogen). The 10 μL assay mixtures contained 50 mM HEPES (pH 7.5), 0.01% Brij-35, 10 mM MgCl2, 1 mM EGTA, 2 μM FRET peptide substrate, and PAK enzyme (20 pM PAK1; 50 pM PAK2). Incubations were carried out at 22° C. in black polypropylene 384-well plates (Corning Costar). […] Following the 60-minute incubation, the assay mixtures were quenched by the addition of 5 μL of Z′-LYTE™ development reagent, and 1 hour later the emissions of Coumarin (445 nm) and Fluorescein (520 nm) were determined after excitation at 400 nm using an Envision plate reader (Perkin Elmer).

Chain of PAK1 (Q13153 270-521 limits assumed): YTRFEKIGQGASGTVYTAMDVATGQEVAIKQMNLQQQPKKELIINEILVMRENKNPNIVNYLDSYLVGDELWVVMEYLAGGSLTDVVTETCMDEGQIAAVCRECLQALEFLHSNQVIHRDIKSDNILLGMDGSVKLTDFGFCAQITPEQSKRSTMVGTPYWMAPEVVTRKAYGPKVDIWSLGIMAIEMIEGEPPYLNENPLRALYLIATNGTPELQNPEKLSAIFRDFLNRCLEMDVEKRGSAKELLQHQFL
Chain of JAK2(JH1domain-catalytic) (O60674 849-1124 limits assumed): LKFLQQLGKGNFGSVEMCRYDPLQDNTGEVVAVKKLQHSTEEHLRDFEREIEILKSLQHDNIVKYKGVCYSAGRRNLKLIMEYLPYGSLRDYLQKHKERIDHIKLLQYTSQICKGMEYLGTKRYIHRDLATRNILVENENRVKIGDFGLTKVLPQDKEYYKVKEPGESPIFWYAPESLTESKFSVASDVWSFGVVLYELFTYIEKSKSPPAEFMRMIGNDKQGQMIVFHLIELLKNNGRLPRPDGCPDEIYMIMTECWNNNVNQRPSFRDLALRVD
Chain of IRAK3 (Q9Y616 whole entry): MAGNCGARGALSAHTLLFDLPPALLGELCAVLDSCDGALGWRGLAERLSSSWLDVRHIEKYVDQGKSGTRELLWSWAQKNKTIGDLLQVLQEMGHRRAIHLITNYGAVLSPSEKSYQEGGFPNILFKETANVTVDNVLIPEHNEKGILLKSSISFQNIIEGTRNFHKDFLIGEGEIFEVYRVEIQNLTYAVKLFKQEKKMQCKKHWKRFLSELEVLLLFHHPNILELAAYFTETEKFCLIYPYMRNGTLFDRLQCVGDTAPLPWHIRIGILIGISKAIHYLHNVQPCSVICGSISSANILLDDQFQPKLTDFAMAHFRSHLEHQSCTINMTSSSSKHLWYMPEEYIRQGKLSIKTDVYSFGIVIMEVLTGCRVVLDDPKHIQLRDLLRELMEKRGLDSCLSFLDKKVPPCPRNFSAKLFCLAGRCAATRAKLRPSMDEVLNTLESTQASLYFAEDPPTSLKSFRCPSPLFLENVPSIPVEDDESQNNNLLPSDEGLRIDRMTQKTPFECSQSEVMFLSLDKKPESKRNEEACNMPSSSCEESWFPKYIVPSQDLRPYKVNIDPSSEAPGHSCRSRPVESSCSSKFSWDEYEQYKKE
Chain of KIT(V559D) (P10721 26-976 V559D): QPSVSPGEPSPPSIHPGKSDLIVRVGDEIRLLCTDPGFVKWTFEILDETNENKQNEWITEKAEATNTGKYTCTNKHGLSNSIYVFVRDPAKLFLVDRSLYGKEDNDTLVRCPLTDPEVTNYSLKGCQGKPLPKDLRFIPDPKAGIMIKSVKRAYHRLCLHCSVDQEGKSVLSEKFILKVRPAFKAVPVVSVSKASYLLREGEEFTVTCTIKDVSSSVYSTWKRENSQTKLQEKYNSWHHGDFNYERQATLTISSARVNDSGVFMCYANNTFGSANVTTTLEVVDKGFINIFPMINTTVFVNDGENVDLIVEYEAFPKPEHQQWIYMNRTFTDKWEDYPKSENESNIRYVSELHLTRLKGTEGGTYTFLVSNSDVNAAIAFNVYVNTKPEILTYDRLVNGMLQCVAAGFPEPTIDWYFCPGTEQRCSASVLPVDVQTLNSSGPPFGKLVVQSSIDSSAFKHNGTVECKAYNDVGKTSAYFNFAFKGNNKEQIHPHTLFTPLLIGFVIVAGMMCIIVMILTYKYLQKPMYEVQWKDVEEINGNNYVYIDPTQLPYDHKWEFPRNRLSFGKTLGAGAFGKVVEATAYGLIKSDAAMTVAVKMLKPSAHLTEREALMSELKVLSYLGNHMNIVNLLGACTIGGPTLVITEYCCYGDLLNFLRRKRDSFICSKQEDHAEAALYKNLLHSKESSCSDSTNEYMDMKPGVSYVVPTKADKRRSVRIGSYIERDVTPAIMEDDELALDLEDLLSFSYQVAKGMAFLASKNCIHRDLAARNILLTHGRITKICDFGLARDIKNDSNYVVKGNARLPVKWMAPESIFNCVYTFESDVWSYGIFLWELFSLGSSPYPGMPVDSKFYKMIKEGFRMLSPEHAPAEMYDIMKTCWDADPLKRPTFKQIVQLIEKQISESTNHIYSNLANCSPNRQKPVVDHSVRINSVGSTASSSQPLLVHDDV
Chain of BLK (P51451 whole entry): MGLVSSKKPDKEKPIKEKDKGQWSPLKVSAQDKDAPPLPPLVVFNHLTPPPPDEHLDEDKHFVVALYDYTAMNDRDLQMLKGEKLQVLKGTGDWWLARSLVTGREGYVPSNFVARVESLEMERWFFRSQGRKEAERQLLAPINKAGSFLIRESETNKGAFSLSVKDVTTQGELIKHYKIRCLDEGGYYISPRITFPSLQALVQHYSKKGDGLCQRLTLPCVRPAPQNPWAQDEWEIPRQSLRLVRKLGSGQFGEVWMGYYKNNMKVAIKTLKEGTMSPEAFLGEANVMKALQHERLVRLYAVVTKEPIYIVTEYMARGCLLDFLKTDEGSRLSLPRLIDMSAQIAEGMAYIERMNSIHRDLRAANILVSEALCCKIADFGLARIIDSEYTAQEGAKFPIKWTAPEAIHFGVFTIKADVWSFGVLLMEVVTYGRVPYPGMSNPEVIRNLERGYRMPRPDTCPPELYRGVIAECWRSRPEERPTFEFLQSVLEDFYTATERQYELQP
Chain of PCTK1 (Q00536 whole entry): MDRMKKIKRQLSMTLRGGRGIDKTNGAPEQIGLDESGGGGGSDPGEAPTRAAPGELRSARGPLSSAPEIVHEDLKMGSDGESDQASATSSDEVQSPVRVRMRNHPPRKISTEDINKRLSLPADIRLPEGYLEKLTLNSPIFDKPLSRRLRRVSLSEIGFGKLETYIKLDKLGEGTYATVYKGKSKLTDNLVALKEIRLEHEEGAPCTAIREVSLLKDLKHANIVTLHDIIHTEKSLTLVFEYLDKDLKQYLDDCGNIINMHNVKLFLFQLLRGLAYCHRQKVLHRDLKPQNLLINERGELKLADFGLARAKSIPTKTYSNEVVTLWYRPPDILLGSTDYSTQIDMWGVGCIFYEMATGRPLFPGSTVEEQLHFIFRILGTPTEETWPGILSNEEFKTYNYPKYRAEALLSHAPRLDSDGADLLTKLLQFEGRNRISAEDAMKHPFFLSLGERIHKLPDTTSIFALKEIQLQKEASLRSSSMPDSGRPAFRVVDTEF
Chain of ADCK4 (Q96D53 whole entry): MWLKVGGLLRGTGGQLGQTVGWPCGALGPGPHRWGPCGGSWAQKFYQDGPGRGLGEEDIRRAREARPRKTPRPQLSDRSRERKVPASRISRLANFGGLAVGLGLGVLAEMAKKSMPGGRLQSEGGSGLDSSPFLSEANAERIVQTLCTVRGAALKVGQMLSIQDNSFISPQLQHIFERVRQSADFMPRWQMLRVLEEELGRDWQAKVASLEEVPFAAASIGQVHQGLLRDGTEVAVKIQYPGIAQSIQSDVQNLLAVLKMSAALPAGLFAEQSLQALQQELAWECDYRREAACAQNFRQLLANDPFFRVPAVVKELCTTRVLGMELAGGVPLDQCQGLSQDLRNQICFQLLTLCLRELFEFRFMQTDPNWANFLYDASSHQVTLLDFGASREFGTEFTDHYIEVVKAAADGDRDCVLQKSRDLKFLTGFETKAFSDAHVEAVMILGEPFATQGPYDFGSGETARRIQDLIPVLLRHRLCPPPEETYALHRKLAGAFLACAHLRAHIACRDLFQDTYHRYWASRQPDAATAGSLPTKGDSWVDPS
Chain of PIK3CA (P42336 whole entry): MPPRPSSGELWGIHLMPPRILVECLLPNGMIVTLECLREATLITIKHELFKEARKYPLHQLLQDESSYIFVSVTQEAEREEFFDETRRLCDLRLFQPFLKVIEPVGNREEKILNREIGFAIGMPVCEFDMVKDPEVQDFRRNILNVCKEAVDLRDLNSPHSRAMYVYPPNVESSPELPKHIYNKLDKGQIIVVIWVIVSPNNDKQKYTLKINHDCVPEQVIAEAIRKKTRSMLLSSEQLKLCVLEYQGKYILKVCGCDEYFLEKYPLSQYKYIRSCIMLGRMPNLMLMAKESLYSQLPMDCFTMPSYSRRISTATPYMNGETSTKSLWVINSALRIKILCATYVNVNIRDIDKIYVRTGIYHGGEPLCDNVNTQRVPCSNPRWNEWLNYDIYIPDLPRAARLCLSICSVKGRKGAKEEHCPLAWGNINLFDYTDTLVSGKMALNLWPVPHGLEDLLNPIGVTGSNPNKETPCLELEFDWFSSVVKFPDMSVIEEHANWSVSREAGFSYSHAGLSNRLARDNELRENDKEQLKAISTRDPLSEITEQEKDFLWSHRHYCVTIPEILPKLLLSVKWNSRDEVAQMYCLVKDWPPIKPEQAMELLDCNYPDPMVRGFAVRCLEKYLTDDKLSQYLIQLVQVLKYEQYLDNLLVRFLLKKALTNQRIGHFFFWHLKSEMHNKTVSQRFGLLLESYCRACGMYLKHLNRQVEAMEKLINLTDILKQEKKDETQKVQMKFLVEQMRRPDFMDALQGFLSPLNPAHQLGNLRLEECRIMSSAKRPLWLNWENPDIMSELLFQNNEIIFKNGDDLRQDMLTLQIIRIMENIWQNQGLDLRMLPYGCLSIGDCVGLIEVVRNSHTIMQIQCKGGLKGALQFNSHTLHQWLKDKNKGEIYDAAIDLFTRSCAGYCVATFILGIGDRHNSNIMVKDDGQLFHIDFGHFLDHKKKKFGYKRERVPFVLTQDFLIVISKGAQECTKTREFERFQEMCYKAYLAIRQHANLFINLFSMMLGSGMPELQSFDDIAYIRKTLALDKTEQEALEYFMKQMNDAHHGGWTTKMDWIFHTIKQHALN
Chain of MEK6 (P52564 whole entry): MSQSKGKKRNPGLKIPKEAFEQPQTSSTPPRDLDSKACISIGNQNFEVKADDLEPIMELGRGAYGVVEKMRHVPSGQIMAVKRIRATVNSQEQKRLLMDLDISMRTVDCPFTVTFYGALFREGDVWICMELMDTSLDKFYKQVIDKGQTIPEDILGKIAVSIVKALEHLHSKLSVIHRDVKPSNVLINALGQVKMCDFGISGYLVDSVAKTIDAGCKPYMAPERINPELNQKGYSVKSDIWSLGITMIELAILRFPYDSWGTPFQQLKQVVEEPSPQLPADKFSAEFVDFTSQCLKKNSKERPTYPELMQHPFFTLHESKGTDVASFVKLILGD

O=C1CCC(N2C(=O)c3cccc(NCCCCCCCCNC(=O)N4CC[C@H](NC5=Nc6cc(F)ccc6N(CC(F)F)c6ccc(Cl)cc65)C4)c3C2=O)C(=O)N1 (stereo partly drawn) [BJG-05-039, (3S)-3-((2-Chloro-5-(2,2-difluoroethyl)-8-fluoro-5H-dibenzo[b,e][1,4]diazepin-11-yl)amino)-N-(8-((2-(2,6-dioxopiperidin-3-yl)-1,3-dioxoisoindolin-4-yl)amino)octyl)pyrrolidine-1-carboxamide]
remaining binding at 10 µM (PKNB(M. tuberculosis)): 72% | remaining binding at 10 µM (PRKD3): 37% | remaining binding at 10 µM (DAPK2): 41% | remaining binding at 10 µM (ARK5): 45% | remaining binding at 10 µM (CAMK2D): 45% | remaining binding at 10 µM (MAP4K4): 45% | remaining binding at 10 µM (RET): 46% | remaining binding at 10 µM (IRAK3): 55% | remaining binding at 10 µM [1]: 59% | remaining binding at 10 µM (PIK3CA): 60% | remaining binding at 10 µM (ADCK4): 63% | remaining binding at 10 µM (RIPK2): 67% | remaining binding at 10 µM (MET): 68% | remaining binding at 10 µM (BLK): 73% | remaining binding at 10 µM [2]: 78% | remaining binding at 10 µM (KIT(V559D)): 81% | remaining binding at 10 µM (PRKR): 81% | remaining binding at 10 µM (STK36): 82% | remaining binding at 10 µM (AURKC): 83% | remaining binding at 10 µM (MEK6): 86% | remaining binding at 10 µM (SRPK1): 87% | remaining binding at 10 µM (PCTK1): 97% | remaining binding at 10 µM [3]: 99% | remaining binding at 10 µM (IKK-epsilon): 100% | remaining binding at 10 µM (MEK1): 100% | remaining binding at 10 µM (OSR1): 100% | remaining binding at 10 µM (PIK3CA(E545A)): 100% | remaining binding at 10 µM (PIK3CA(Q546K)): 100% | remaining binding at 10 µM (PIK3CB): 100% | remaining binding at 10 µM (PRKCI): 100% | remaining binding at 10 µM (ZAP70): 100% | IC50 (PAK1): 0.233 µM | Increase of selectivity over PAK2 relative to NVS-PAK-1 (PAK1; from Table 1): more than ten-fold | PAK1 inhibitory activity and selectivity of conjugate (PAK1; vs PAK2 and PAK4): retained PAK1 inhibitory activity and selectivity
